Measured values: the supplement of paper PMC6045584

Key:
Assay in all cases: area under dose-response curve of surviving fraction (unscaled, Aref=0) (surviving fraction x log10(nM)); higher = more resistant
Conditions in all cases: exposure time: 5 days; dose range 0.5-1000 nM
[1] = compound: O=C(O)CC[C@H]1CC[C@@](c2cc(F)ccc2F)(S(=O)(=O)c2ccc(Cl)cc2)CC1 [MK0752]
Procedure, shortened: (§1)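 Three screens per tumour cell line were run in 384-well plates at eight inhibitor concentrations from 0.5 to 1000 nM over five days. Surviving fractions, from CellTiter-Glo luminescence normalised to DMSO-only wells, were fitted with 3-parameter logistic curves in the drc R package. The reported area under the curve is the unscaled activity area. It spans log10 dose, and Aref is 0.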

[2] = compound: CO[C@H]1C[C@@H]2CC[C@@H](C)[C@@](O)(O2)C(=O)C(=O)N2CCCC[C@H]2C(=O)O[C@H]([C@H](C)C[C@@H]2CC[C@@H](OCCO)[C@H](OC)C2)CC(=O)[C@H](C)/C=C(\C)[C@@H](O)[C@@H](OC)C(=O)[C@H](C)C[C@H](C)/C=C/C=C/C=C/1C [EVEROLIMUS]
Procedure, shortened: as §1

[3] = compound: CN(Cc1cnc2nc(N)nc(N)c2n1)c1ccc(C(=O)N[C@@H](CCC(=O)O)C(=O)O)cc1 [METHOTREXATE]
Procedure, shortened: as §1

[4] = compound: CCN(CC)CCNC(=O)c1c(C)[nH]c(/C=C2\C(=O)Nc3ccc(F)cc32)c1C [SUNITINIB]
Procedure, shortened: as §1

[5] = compound: NC1(c2ccc(-c3nc4ccn5c(=O)[nH]nc5c4cc3-c3ccccc3)cc2)CCC1 [MK2206]
Procedure, shortened: as §1

[6] = compound: Cc1nc(Nc2n[nH]c3c2CN(C(=O)N[C@H](CN(C)C)c2ccccc2)C3(C)C)c2sccc2n1
Procedure, shortened: as §1

[7] = compound: CCCS(=O)(=O)Nc1ccc(F)c(C(=O)c2c[nH]c3ncc(Cl)cc23)c1F [PLX-4720]
Procedure, shortened: as §1

[8] = compound: O=C(NOCC1CC1)c1ccc(F)c(F)c1Nc1ccc(I)cc1Cl
Procedure, shortened: as §1

[9] = compound: COc1cc([C@@H]2c3cc4c(cc3[C@@H](O[C@@H]3O[C@@H]5CO[C@@H](C)O[C@H]5[C@H](O)[C@H]3O)[C@H]3COC(=O)[C@H]23)OCO4)cc(OC)c1O [ETOPOSIDE]
Procedure, shortened: as §1

[10] = compound: C#Cc1cccc(Nc2ncnc3cc(OCCOC)c(OCCOC)cc23)c1 [ERLOTINIB]
Procedure, shortened: as §1

[11] = compound: CCC1=C[C@@H]2CN(C1)Cc1c([nH]c3ccccc13)[C@@](C(=O)OC)(c1cc3c(cc1OC)N(C)[C@H]1[C@@](O)(C(=O)OC)[C@H](OC(C)=O)[C@]4(CC)C=CCN5CC[C@]31[C@@H]54)C2 [VINORELBINE]
Procedure, shortened: as §1

[12] = compound: COc1cc(CCc2cc(NC(=O)c3ccc(N4CC(C)NC(C)C4)cc3)n[nH]2)cc(OC)c1 [AZD4547]
Procedure, shortened: as §1

[13] = compound: Nc1ccn([C@@H]2O[C@H](CO)[C@@H](O)C2(F)F)c(=O)n1 [GEMCITABINE]
Procedure, shortened: as §1

Row | Test System | area under dose-response curve [1] | area under dose-response curve [2] | area under dose-response curve [3] | area under dose-response curve [4] | area under dose-response curve [5] | area under dose-response curve [6] | area under dose-response curve [7] | area under dose-response curve [8] | area under dose-response curve [9] | area under dose-response curve [10] | area under dose-response curve [11] | area under dose-response curve [12] | area under dose-response curve [13]
1 | 22RV1 PROSTATE | 3.57 | 1.48 | 2.21 | 3.06 | 2.65 | 1.33 | 3.09 | 2.6 | 2.73 | 3.31 | 1.53 | 3.43 | 
2 | 93VU HEADNECK | 3.92 | 2.71 |  | 2.8 |  | 1.18 | 3.02 | 2.54 | 3.41 | 2.99 | 2.19 | 3.56 | 2
3 | 143B BONE | 3.49 |  |  | 3.19 |  | 1.67 |  | 3.23 | 3.04 |  | 1.92 | 2.83 | 
4 | A549 LUNG | 3.48 | 2.81 | 2.14 | 3.13 | 3.54 | 1.86 | 3.13 | 3.13 |  | 3.49 | 2.2 | 3.33 | 1.76
5 | CAL120 BREAST | 3.37 | 1.62 | 1.67 | 2.74 | 3.14 | 1.08 | 2.96 | 2.97 | 2.9 | 3.02 | 1.59 | 2.59 | 
6 | HCC38 BREAST | 4.01 | 2.92 |  |  | 4.11 | 1.16 | 3.09 | 3.59 |  | 4.24 | 2.07 | 2.93 | 1.01
7 | HCC1395 BREAST | 3.51 | 3.36 | 3.78 | 3.19 | 3.23 | 3.37 | 2.7 | 3.01 | 3.25 | 3.97 | 2.74 | 2.6 | 
8 | HELA CERVIX | 3.42 | 3.58 | 2.22 | 3.08 | 3.72 | 2.12 | 3.26 |  | 3.04 | 3.61 | 1.64 | 3.71 | 1.75
9 | HOSMNG BONE | 3.3 | 3.27 | 1.71 | 3.15 | 2.72 | 2.58 |  | 3.32 |  | 3.19 | 2.25 | 3.3 | 1.49
10 | HS578T BREAST | 3.05 | 1.77 | 2.46 |  | 2.94 | 1.45 | 2.96 | 3.18 | 2.59 |  | 1.28 | 3.18 | 3.12
11 | HT1080 SOFT TISSUE | 3.29 | 2.11 | 1.8 | 3.16 | 3.42 | 1.07 | 3.25 | 3.16 | 2.29 | 3.44 | 1.38 |  | 1.22
12 | KPD BONE | 3.43 | 1.44 | 3.55 | 3.08 | 2.3 | 1.06 | 3.19 | 3.25 | 2.77 | 3.57 | 2.29 | 3.14 | 
13 | LM7 BONE | 3.27 | 2.56 | 3 | 2.46 | 2.88 | 1.39 | 2.76 |  | 3.06 | 3.61 | 1.45 | 3.11 | 1.12
14 | MDAMB134 BREAST | 3.51 | 2.21 | 3.13 | 2.75 | 2.78 | 3.15 | 2.51 | 2.87 | 3.5 | 3.65 | 2.38 | 3.23 | 
15 | MDAMB453 BREAST | 3.54 | 1.43 | 2.93 | 3.27 | 2.65 | 1.76 | 3.35 | 3.37 | 3.71 |  | 1.31 | 2.88 | 1.47
16 | RDES SOFT TISSUE | 3.76 | 3.46 | 1.28 | 2.98 |  | 2.66 | 2.9 | 4.3 | 2.91 | 4.03 | 1.91 |  | 1.4
17 | S68 BREAST | 3.26 | 1.39 | 3.64 | 2.58 | 2.5 | 1.4 | 2.92 | 2.84 | 2.65 |  | 1.53 | 3.45 | 1.22
18 | SG32 HEADNECK | 3.82 |  | 3.65 | 1.96 | 3.68 | 1.04 | 2 | 2.65 |  | 3.57 | 1.95 | 3.26 | 1.77
19 | SJSA1 BONE | 3.53 | 5.2 | 5.58 | 3.16 | 3.03 | 1.92 | 3.17 | 3.08 | 3.13 |  | 2.09 | 3.5 | 5.62
20 | SKBR3 BREAST | 3.29 | 1.31 | 2.7 | 2.46 | 2.48 | 1.62 | 3.02 |  | 3.1 | 3.55 | 1.38 | 3.75 | 1.76
21 | SUM44 BREAST | 3.38 | 2.5 | 3.95 |  |  | 3.07 | 3.17 | 3.4 | 3.47 | 4.26 | 1.61 | 3.48 | 
22 | SUM149.B1*.S BREAST | 3.78 | 3.22 |  | 2.35 | 3.63 | 1.97 |  | 2.74 |  | 3.76 | 2.37 | 3.88 | 1.44
23 | VCAP PROSTATE | 3.78 | 3.02 | 3.36 | 3.14 | 2.65 | 1.29 | 3.22 | 3.17 |  | 3.63 | 1.32 |  | 1.1
24 | YAMATO SYNOVIAL | 4.77 | 2.2 | 2.44 | 1.58 | 2.75 | 2.79 | 2.65 | 3.26 |  | 4.34 | 2.04 |  | 1.25
